From US4429044A, “Preparation of an alkaline protease from flavobacterium arborescens” (Miles Laboratories, Inc., priority 1982, dated 1984) come the findings set out here.

B1: SSI: streptomyces subtilisin inhibitor (protein, UniProt P01006 32-144, looked up)
Subtilisin inhibitor: DAPSALYAPSALVLTVGKGVSATTAAPERAVTLTCAPGPSGTHPAAGSACADLAAVGGDLNALTRGEDVMCPMVYDPVLLTVDGVWQGKRVSYERVFSNECEMNAHGSSVFAF

For this test, the system named is F. arborescens protease. Type of test: biochemical, Flavobacterium arborescens.
Consider `O=C(O)CN(CCN(CC(=O)O)CC(=O)O)CC(=O)O` [EDTA, ethylenediamine tetraacetate], for which the “Activity of protease in presence of inhibitor” value turned out to be 4.1 units.
`CCN1C(=O)C=CC1=O` [NEM, N--ethyl maleimide]: the “Activity of protease in presence of inhibitor” value turned out to be 2.0 units.
`O=S(=O)(F)Cc1ccccc1` [PMSF, phenylmethyl sulfonyl fluoride]: the “Activity of protease in presence of inhibitor” value is recorded as 1.9 units and the “Effect of inhibitor on protease activity (in words)” value is recorded as “no effect”.
In the case of B1, the “Activity of protease in presence of inhibitor” value stood at 1.6 units and the “Effect of inhibitor on protease activity (in words)” value is listed as “strongly inhibited”.
